In ChEMBL document CHEMBL4002603, “Structure-activity relationship study and discovery of indazole 3-carboxamides as calcium-release activated calcium channel blockers” (Bioorg Med Chem Lett, 2017):
Activity calls are given as the source filed them. The rule behind the calls is not given here.

Legend:
Assay type in all cases: cell-based
Rattus norvegicus [1] = organism: Rattus norvegicus; test: Inhibition of thapsigargin activated calcium-release activated channel in rat RBL2H3 mast cells assessed as decrease in calcium influx at 100 uM by Fluo-4NW calcium assay
RBL-2H3 = test: Cytotoxicity against rat RBL2H3 mast cells at 100 uM by CCK8 cell viability assay; conditions: rbl-2h3, 100 µM
[2] = Inhibition of thapsigargin activated calcium-release activated channel in rat RBL2H3 mast cells assessed as decrease in calcium influx by Fluo-4NW calcium assay
Rattus norvegicus [3] = organism: Rattus norvegicus; test: Inhibition of thapsigargin activated calcium-release activated channel in rat RBL2H3 mast cells assessed as decrease in calcium influx at 30 uM by Fluo-4NW calcium assay
[4] = (§1) Inhibition of thapsigargin activated calcium-release activated channel in rat RBL2H3 mast cells assessed as decrease in TNFalpha secretion measured 4 hrs after extracellular calcium exposure by ELISA; conditions: RBL-2H3, 4 h
Rattus norvegicus [5] = organism: Rattus norvegicus; test: as §1
[6] = (§2) Inhibition of thapsigargin activated calcium-release activated channel in rat RBL2H3 mast cells assessed as decrease in release of beta-hexosaminidase preincubated for 30 mins followed by extracellular calcium addition by ELISA method; conditions: RBL-2H3
Rattus norvegicus [7] = organism: Rattus norvegicus; test: as §2
[8] = (§3) Inhibition of thapsigargin activated calcium-release activated channel in rat RBL2H3 mast cells assessed as decrease in nuclear translocation of NFAT-c1 measured 30 mins after extracellular calcium exposure by ELISA; conditions: RBL-2H3, 0.5 h
Rattus norvegicus [9] = organism: Rattus norvegicus; test: as §3
Rattus norvegicus [10] = organism: Rattus norvegicus; test: Inhibition of thapsigargin activated calcium-release activated channel in rat RBL2H3 mast cells assessed as decrease in calcium influx at 10 to 100 uM by Fluo-4NW calcium assay
[11] = Rattus norvegicus, RBL-2H3, read-out: IC50

SMILES | Activity (RBL-2H3) | IC50 [2, 11] [µM] | further results
Cc1cc(NC(=O)c2nn(Cc3ccc(Cl)cc3Cl)c3ccccc23)ccn1 | Non-Toxic |  | inhibition (Rattus norvegicus [1]): < 50%
O=C(Nc1ccnc(F)c1)c1nn(Cc2ccc(Cl)cc2Cl)c2c1CCCCC2 | Non-Toxic |  | IC50 [2]: Nd(Insoluble)
O=C(Nc1cc(F)nc(F)c1)c1nn(Cc2ccc(Cl)cc2Cl)c2c1CCCC2 | Non-Toxic | 1.34 | 
O=C(Nc1ccccc1F)c1nn(Cc2ccc(Cl)cc2Cl)c2ccccc12 | Non-Toxic | > 30 | inhibition (Rattus norvegicus [3]): 44 to 48%; IC50 [4]: 0.28 µM; inhibition (Rattus norvegicus [5]): Dose-dependent effect
O=C(Nc1nn(Cc2ccc(Cl)cc2Cl)c2ccccc12)c1c(F)cccc1F | Non-Toxic |  | inhibition (Rattus norvegicus [1]): < 50%
O=C(Nc1ccnc(F)c1)c1nn(Cc2ccc(Cl)cc2Cl)c2c1CCC2 | Non-Toxic | 0.99 | 
Cc1cc(NC(=O)c2nn(Cc3ccc(Cl)cc3Cl)c3c2CCC3)ccn1 | Non-Toxic | > 30 | 
O=C(Nc1ccnc(F)c1)c1nn(Cc2ccc(Cl)cc2Cl)c2ccccc12 | Non-Toxic | 0.67 | EC50 [6]: 0.86 µM; inhibition (Rattus norvegicus [7]): Dose-dependent effect; IC50 [8]: 1.6 µM; inhibition (Rattus norvegicus [9]): Dose-dependent effect; inhibition (Rattus norvegicus [5]): Dose-dependent effect; inhibition (Rattus norvegicus [10]): Active
Cc1cc(C(=O)Nc2nn(Cc3ccc(Cl)cc3Cl)c3ccccc23)ccn1 | Non-Toxic | > 30 | inhibition (Rattus norvegicus [3]): 44 to 48%
O=C(Nc1nn(Cc2ccc(Cl)cc2Cl)c2ccccc12)c1cc(F)nc(F)c1 | Non-Toxic |  | inhibition (Rattus norvegicus [1]): < 50%
O=C(Nc1cc(F)nc(F)c1)c1nn(Cc2ccc(Cl)cc2Cl)c2c1CCC2 | Non-Toxic | 0.65 | 
Cc1cc(NC(=O)c2nn(Cc3ccc(Cl)cc3Cl)c3c2CCCCC3)ccn1 | Non-Toxic | > 30 | 
O=C(Nc1cc(F)nc(F)c1)c1nn(Cc2ccc(Cl)cc2Cl)c2ccccc12 | Non-Toxic | > 30 | inhibition (Rattus norvegicus [3]): 46%
O=C(Nc1nn(Cc2ccc(Cl)cc2Cl)c2ccccc12)c1ccnc(F)c1 | Non-Toxic |  | inhibition (Rattus norvegicus [1]): < 50%
O=C(Nc1c(F)cccc1F)c1nn(Cc2ccc(Cl)cc2Cl)c2ccccc12 | Non-Toxic | 1.51 | IC50 [4]: 0.47 µM; inhibition (Rattus norvegicus [5]): Dose-dependent effect; inhibition (Rattus norvegicus [10]): Active
O=C(Nc1nn(Cc2ccc(Cl)cc2Cl)c2ccccc12)c1ccccc1F | Non-Toxic | 29 | inhibition (Rattus norvegicus [10]): Active
O=C(Nc1cc(F)nc(F)c1)c1nn(Cc2ccc(Cl)cc2Cl)c2c1CCCCC2 | Non-Toxic | 12.8 | 
O=C(Nc1cnns1)c1nn(Cc2ccc(Cl)cc2Cl)c2ccccc12 | Non-Toxic |  | inhibition (Rattus norvegicus [1]): < 50%
O=C(Nc1nn(Cc2ccc(Cl)cc2Cl)c2ccccc12)c1ccc(F)cc1F | Non-Toxic |  | inhibition (Rattus norvegicus [1]): < 50%
O=C(Nc1ccnc(F)c1)c1nn(Cc2ccc(Cl)cc2Cl)c2c1CCCC2 | Non-Toxic | 1.53 | 
O=C(Nc1ccc(F)cc1F)c1nn(Cc2ccc(Cl)cc2Cl)c2ccccc12 | Non-Toxic | 2.33 | inhibition (Rattus norvegicus [10]): Active
Cc1cc(NC(=O)c2nn(Cc3ccc(Cl)cc3Cl)c3c2CCCC3)ccn1 | Non-Toxic |  | IC50 [2]: Nd(Insoluble)
Cc1nnsc1C(=O)Nc1nn(Cc2ccc(Cl)cc2Cl)c2ccccc12 | Non-Toxic | > 30 | inhibition (Rattus norvegicus [3]): 44 to 48%
O=C(Nc1c(F)cccc1Cl)c1nn(Cc2ccc(Cl)cc2Cl)c2ccccc12 | Non-Toxic | 3.23 | IC50 [4]: 0.74 µM; inhibition (Rattus norvegicus [5]): Dose-dependent effect; inhibition (Rattus norvegicus [10]): Active
